{"source": "paper PMC5813016", "about": "(Nature Communications, 2018)", "key": {"[1]": {"target": "human dopamine D1 receptor (hD1R) (Homo sapiens, UniProt P21728)", "sequence (P21728 whole entry)": "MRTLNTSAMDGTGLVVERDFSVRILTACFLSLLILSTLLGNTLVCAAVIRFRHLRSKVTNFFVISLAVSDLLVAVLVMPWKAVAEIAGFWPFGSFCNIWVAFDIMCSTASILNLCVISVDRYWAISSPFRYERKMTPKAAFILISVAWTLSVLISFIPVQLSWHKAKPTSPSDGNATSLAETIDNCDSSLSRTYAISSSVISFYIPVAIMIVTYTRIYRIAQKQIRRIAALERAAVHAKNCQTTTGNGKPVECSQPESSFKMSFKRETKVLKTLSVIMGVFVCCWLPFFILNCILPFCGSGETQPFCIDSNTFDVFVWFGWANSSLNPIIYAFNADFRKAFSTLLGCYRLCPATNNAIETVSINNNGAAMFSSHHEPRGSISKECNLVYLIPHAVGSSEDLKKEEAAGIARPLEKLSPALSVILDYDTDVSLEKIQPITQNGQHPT", "assay": "hD1R cAMP HTRF assay (stable HEK293)", "conditions": "percent of maximum response of 5 µM dopamine"}, "[2]": {"test_system": "human D1R / β-arrestin2-GFP in U2OS cells", "assay": "β-arrestin2-GFP membrane recruitment, TIRFM, U2OS cells", "type": "cell-based", "conditions": "U2OS cells expressing human D1R, 1 μM agonist, 10 min", "method": "This stable U2OS cell line was generated, obtained and licensed from Professor Marc G. Caron, Duke University, Durham, NC, USA. […] The U2OS cells were cultured under antibiotic selection in DMEM (Invitrogen) containing 25 mM glucose and 4 mM L-glutamine supplemented with 10% dialyzed fetal bovine serum, […] Geneticin, […] Zeocin, and 100 U/ml penicillin/streptomycin (all from Invitrogen) and incubated at 37 °C in 5% CO2. Cells from passage four through ten were used in these experiments. Cells were grown in 35 mm glass bottomed imaging dishes (Mattek Corp). Cells were incubated for 1 h in serum free media (SFM) and subsequently treated for 10 min at 37 °C with 0.01% DMSO (control) or 1 μM of all test compounds dissolved in SFM followed by immediate fixation on ice with a 4% paraformaldehyde/1× phosphate buffered saline solution.\nTIRFM was used to visualize proteins at the plasma membrane of cells such as D1 receptors and recruited β-arrestin-GFP[65]. All images were captured using a Zeiss PS.1 Elyra Superresolution fluorescence microscope equipped with TIRF module.\nCustom image analysis scripts were developed to automatically identify and quantify β-arrestin membrane recruitment. We employed standard methods of image processing based on grayscale morphology. First 16bit images were transformed to 8bit range via square root transformation to improve identification of punctate structure of varying intensity. Images were smoothed with small Gaussian kernel to eliminate noise (h = 2px, σ = 1). At the next step images were transformed via tophat operation with large kernel (radius 30px) to eliminate non-uniformity of the background. Second tophat transform with small kernel (radius 5px) was used to enhance signal and eliminate local intensity variation around puncta. This image was then processed to find locations of puncta intensity peaks via non-maximal suppression filter with 3px radius of region considered in non-maximal suppression, and threshold 20. Finally the boundaries of puncta were identified using marker controlled watershed operation with peaks serving as foreground markers. After having identified each puncta, we used 8bit transformed but otherwise non-processed images to quantify intensity and area of each region. We focused on two endpoints, number of puncta per cell and integrated intensity of puncta per cell (sum of the products of average intensity and area of each puncta within a cell), both adjusted for cell area as described below. The boundaries of the cells were identified via Otsu's method, followed by hole filling and identification of the largest closely connected component. The area of the foreground was used as normalization factor to account for occasional differences in cell areas in the field of view. Specifically all foreground areas across experiment were pooled and divided by the median of the areas to obtain normalization factor for each image. This factor was then used for adjustment for number of puncta and integrated intensity of puncta, which scale with the number of cells. Puncta outside of cell boundaries were filtered out.\nThe results were aggregated over batches of cells recorded at the same time, with three or more batches per condition, approximately 20 cells per well. The statistical significance was tested via one-way ANOVA with treatment as a factor. To address the problem of severe inequality of variances across the treatment groups assessed via Bartlett′s test, we used square root transformation. All statistical results for the number of puncta per cell and integrated intensity of puncta per cell are presented for transformed variables. Significant ANOVA findings were followed with post-hoc comparisons with Dunnett′s procedure in case of comparisons with the control group or with false discover rate adjustment[69] otherwise. All statistical tests were performed two-tailed at a 5% level of significance."}, "human D3R": {"target": "human D3R (Homo sapiens, UniProt P35462)", "sequence (P35462 whole entry)": "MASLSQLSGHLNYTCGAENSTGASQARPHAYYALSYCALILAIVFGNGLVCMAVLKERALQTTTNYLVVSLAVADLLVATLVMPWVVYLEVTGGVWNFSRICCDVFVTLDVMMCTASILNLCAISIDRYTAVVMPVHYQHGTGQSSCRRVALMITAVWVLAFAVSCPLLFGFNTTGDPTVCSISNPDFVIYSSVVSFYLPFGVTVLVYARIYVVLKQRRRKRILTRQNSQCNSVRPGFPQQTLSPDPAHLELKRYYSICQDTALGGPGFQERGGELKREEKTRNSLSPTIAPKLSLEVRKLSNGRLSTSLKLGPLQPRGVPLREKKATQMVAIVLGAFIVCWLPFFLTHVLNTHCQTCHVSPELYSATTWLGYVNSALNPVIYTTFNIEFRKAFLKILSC", "assay": "Human D3R radioligand binding ([3H]-7-OH-DPAT, CHO)", "procedure": "(§1) Binding assays were performed using stably expressed human D1R LTK, HEK293 rat D1R (rD1R), CHO human D2R (hD2R), CHO human D3R, and Millipore CHEM-1 human D5R (HTS129M) cell lines or primary striatal tissue from cynomolgus monkey brain. […] These ligand and tissue concentrations were used in time course studies to determine linearity and equilibrium conditions for binding. Binding reached equilibrium with the specified amount of tissue by 30 min at 37 °C for hD1R, rD1R, mD1R, 20 min at 37 °C for D2R and D3R and 60 min at room temperature for D5R. […] Membrane radioligand levels were determined by liquid scintillation counting of the filter plates in 50 µl Ecolume. […] Ki values were calculated according to the Cheng-Prusoff equation."}, "human D1R": {"target": "human D1R (Homo sapiens, UniProt P21728)", "sequence (P21728 whole entry)": "as the sequence (P21728 whole entry) above", "assay": "Human D1R radioligand binding ([3H]-SCH23390, LTK cells)", "procedure": "as §1"}, "human D5R": {"target": "human D5R (Homo sapiens, UniProt P21918)", "sequence (P21918 whole entry)": "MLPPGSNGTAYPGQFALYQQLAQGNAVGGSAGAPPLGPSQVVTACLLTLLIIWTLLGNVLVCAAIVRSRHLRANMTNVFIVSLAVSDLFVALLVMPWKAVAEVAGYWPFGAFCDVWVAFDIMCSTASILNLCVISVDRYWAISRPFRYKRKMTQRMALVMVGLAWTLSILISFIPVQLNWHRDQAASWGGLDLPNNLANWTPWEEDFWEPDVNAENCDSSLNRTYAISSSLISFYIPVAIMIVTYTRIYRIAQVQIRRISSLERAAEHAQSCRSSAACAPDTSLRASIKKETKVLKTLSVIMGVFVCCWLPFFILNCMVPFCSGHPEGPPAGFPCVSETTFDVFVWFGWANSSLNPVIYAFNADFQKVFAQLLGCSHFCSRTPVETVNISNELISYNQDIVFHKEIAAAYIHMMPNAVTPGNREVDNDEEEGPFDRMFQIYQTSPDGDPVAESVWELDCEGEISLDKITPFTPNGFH", "assay": "Human D5R radioligand binding ([3H]-SCH23390, CHEM-1)", "procedure": "as §1"}, "human D2R (hD2R)": {"target": "human D2R (hD2R) (Homo sapiens, UniProt P14416)", "sequence (P14416 whole entry)": "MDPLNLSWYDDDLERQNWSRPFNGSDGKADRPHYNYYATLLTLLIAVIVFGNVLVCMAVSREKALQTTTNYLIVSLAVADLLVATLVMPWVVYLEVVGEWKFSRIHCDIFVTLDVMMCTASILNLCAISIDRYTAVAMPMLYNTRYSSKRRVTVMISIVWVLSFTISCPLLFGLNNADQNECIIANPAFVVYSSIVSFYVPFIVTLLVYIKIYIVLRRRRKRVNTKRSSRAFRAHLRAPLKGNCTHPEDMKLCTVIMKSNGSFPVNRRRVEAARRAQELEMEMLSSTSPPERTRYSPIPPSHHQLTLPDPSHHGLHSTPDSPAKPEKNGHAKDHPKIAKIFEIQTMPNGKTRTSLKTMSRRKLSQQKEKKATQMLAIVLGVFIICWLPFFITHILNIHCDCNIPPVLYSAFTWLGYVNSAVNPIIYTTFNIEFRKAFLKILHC", "assay": "Human D2R radioligand binding ([3H]-spiperone, CHO)", "procedure": "as §1"}, "[3]": {"target": "human dopamine D5 receptor (hD5R) (Homo sapiens, UniProt P21918)", "sequence (P21918 whole entry)": "as the sequence (P21918 whole entry) above", "assay": "hD5R cAMP HTRF assay (stable HEK293)", "conditions": "for Efficacy hD5R cAMP: percent of maximum response of 5 µM dopamine"}, "cynomolgus monkeys": {"test_system": "cynomolgus monkeys", "assay": "Monkey spontaneous eye blink rate (EBR)", "type": "in vivo, Macaca fasicularis", "conditions": "monkey; data not shown", "method": "Increase in spontaneous EBR has been previously shown with D1 agonists and partial agonists. To confirm the specificity of the response in our particular assay set up for D1 activation, we verified that the D1 receptor antagonist SCH-39166 fully blocks the increased eye blink response of non-catechol full D1 agonist that is a close structural analog of the compounds in this paper (data not shown). All procedures involving animals were conducted with approval of the Pfizer Institutional Animal Care and Use Committee (Groton, CT) and compliant with the regulations and standards of the Animal Welfare Act (9CFR2, 9CFR3). Three male Cynomolgus macaques (Macaca fasicularis) of Mauritian origin, 7–10 years old, SPF for CHV-1, SIV, STLV1 and SRV 1, 2, 5 were used. Animals were exposed to 12 h light/dark cycle (lights on 6:00 AM – 6:00 PM). […] EBRS were recorded from chaired animals for 2 min at 10 min intervals by a trained observer through direct visual observation who was blinded to experimental conditions. Animals were chaired at approximately 7:30 AM. After vehicle or compound administration, eye blinks were recorded during the following intervals: from 10 to 50 min (0–1 h), 130 to 170 min (2–3 h), 310 to 350 min (5–6 h). Animals were returned to their home cages between two consecutive sessions and after the final recording of the day. Blood samples (1 ml) were collected from the femoral vein at 1 and 5 h after the first dose to quantitate plasma compound levels. […] A77636 was dissolved in 0.9% sterile saline, formulated fresh prior to administration, and given once per day for 3 days. […] Vehicle control was administered on day 0.\nEBR data were first converted to blinks per minute. EBR were averaged by binning into 3 periods: Period 1 (0–1 h after the first dose) EBR = mean of 10, 20, 30, 40, and 50 min recordings; Period 2 (2–3 h after the first dose) EBR = mean of 130, 140, 150, 160, and 170 min recordings; Period 3 (5–6 h after the first dose) EBR = mean of 310, 320, 330, 340, and 350 min recordings. For Fig. 5c EBR data were averaged by binning data from periods 1 through 3 as daily EBR. Data from each animal was then normalized to their respective Day 1 EBR and expressed as percent of Day 1 EBR for each drug. EBR data were analyzed with SAS® 9.4 (SAS Institute Inc. Cary, NC) using a mixed linear model (Mixed Procedure) for repeated measures. The model included treatment, day, time period, and their interactions as fixed effects, and animal and animal-by-day interaction as random effects. A first order autoregressive model was used for longitudinal covariance structure. Differences between least squares means across days, overall and for each time period, were tested and adjusted for multiple comparisons via Tukey method. […]"}, "[4]": {"test_system": "D1R in rat striatal neurons", "assay": "D1R desensitization in primary rat striatal neurons (cAMP after SKF-81297 challenge)", "type": "cell-based", "conditions": "rat striatal neurons pretreated 120 min with 10 μM agonist", "method": "Striatal neurons were chosen for the desensitization studies because they express endogenous D1 receptors and are a physiologically relevant tissue for examining neurotransmitter receptor desensitization in vitro. […] Both hemispheres of the striatum were microdissected from the embryonic rat brains and placed into HBSS. All isolated tissue was combined and washed 1× with HBSS, followed by trypsinization using a 0.05% trypsin-EDTA solution for 15 min at 37 °C. […] The cell suspension was added to the top of 5 ml complete MEM media with 1 ml of 100% FBS serum at bottom of a 15 ml tube and centrifuged at 1450 rpm for 5 min. The […] and diluted 10-20× in complete MEM and cell density determined. Cells were plated at a density of 35,000 cells/well in poly-ornithine/laminin coated 96 well plates (Biocoat, BD Falcon) and cultured in Neurobasal media supplemented with B27, 1× Glutamax, and penicillin/streptomycin (100 U/mL) (all from Invitrogen) at 37 °C in 5% CO2 for 14-16 days prior to assay. […] After the pretreatment, cells were washed twice at 5 min intervals with 250 μl/well fresh Neurobasal media. […] The concentration of cAMP (nM) from treated wells was interpolated from a cAMP standard curve by non-linear regression least squares analysis using Graphpad Prism 5.02. […] The percent desensitization was calculated as the percent decrease in cAMP relative to vehicle control. Statistical differences were compared by a one-way ANOVA with Dunnett's post-test analysis using Graphpad Prism 5.02."}, "[5]": {"assay": "Rat pharmacokinetic studies", "type": "in vivo, Wistar Hannover rat", "method": "Rat pharmacokinetic studies were conducted at BioDuro, Pharmaceutical Product Development, Inc. (Shanghai, China). Wistar Hannover rats (227–293 gram weight) were obtained from Vital River Laboratories (China). All animal studies were conducted in accordance with the Pfizer Institutional Animal Care and Use Committee (Groton, CT), using protocols approved by Pfizer PDM′s Global BA Committee (2009). Jugular vein-cannulated male Wistar Hanover rats were maintained on a 12 h light/dark cycle for a minimum of three days in a temperature-controlled and humidity-controlled environment with free access to food and water. Individual animals (n = 2 or 3 per dose/route) were administered a single dose of compound by either intravenous injection via tail vein or oral gavage based on body weight. […] The PF-6142 intravenous dose (1 mg/kg) was formulated in saline acidified with three molar equivalents of 1 N hydrochloric acid and the PF-6142 oral dose (5 mg/kg) was formulated in 0.5% methylcellulose. […] Formulations were agitated until all of the test article was dissolved. […] From each rat, serial blood samples were collected via jugular vein cannula prior to dose administration and at the following time points post-dose: 0.033 (i.v. only), 0.083, 0.25, 0.5, 1, 2, 4, 7, and 24 h. […] All blood samples were placed on wet ice until centrifugation. Following centrifugation, the plasma was transferred to polypropylene tubes and stored frozen at either −20 °C to −80 °C until analysis. Urine was collected from all intravenous-dosed rats into collection tubes from the collection intervals of 0–7 h and 7–24 h post-dose. […] All urine samples were stored at −80 °C until analysis. All samples were processed for quantitation of compound concentrations using protein precipitation methodology followed by analysis using liquid chromatography-tandem mass spectrometry (LC-MS/MS). […] The pharmacokinetic parameters (including those in Supplementary Table 3) were computed by non-compartmental analysis[61] using Watson Bioanalytical LIMS version 7.4 (Thermo Fischer Scientific, CA)."}}, "note": "Entries after “also recorded” stand apart in the source; their conditions may differ."}
{"smiles": "Oc1cc2c(cc1O)[C@H]1c3ccccc3CN[C@@H]1CC2", "note": "(racemic) [Dihydrexidine, reference compound]", "values": [{"measurement": "Efficacy hD1R cAMP", "setting": "[1]", "value": "100±2"}, {"measurement": "β-arrestin-GFP recruitment to the plasma membrane (TIRFM)", "setting": "[2]", "value": "significantly higher signal"}, {"measurement": "Ki", "setting": "human D3R", "value": "387 ± 21", "unit": "nM"}]}
{"smiles": "NCCc1ccc(O)c(O)c1", "note": "[Dopamine, reference compound]", "values": [{"measurement": "β-arrestin-GFP recruitment to the plasma membrane (TIRFM)", "setting": "[2]", "value": "membrane associated β-arrestin puncta appeared rapidly; also recorded: significantly higher signal"}]}
{"smiles": "Cn1nccc1-c1ccc(Oc2nccc3occc23)cc1", "note": "[PF-4211]", "values": [{"measurement": "Ki", "setting": "human D1R", "value": "3140 ± 335", "unit": "nM"}, {"measurement": "Ki", "setting": "human D5R", "value": "1890 ± 508", "unit": "nM"}, {"measurement": "Ki", "setting": "human D2R (hD2R)", "value": "> 4280", "unit": "nM"}, {"measurement": "EC50", "setting": "[3]", "value": "1780 ± 144", "unit": "nM"}, {"measurement": "Efficacy hD5R cAMP", "setting": "[3]", "value": "53±1"}, {"measurement": "Ki", "setting": "human D3R", "value": "> 671", "unit": "nM"}]}
{"smiles": "CN1CCc2cc(Cl)c(O)cc2[C@H]2c3ccccc3CC[C@@H]21", "note": "[SCH-39166]", "values": [{"measurement": "blockade of EBR increase induced by a non-catechol full D1 agonist", "setting": "cynomolgus monkeys", "value": "fully blocks"}]}
{"smiles": "Oc1cc2c(cc1O)C(c1ccccc1)CNCC2", "note": "(stereo not shown) [SKF-38393, reference compound]", "values": [{"measurement": "Efficacy hD1R cAMP", "setting": "[1]", "value": "41±3"}, {"measurement": "percent desensitization of D1R cAMP response to 1 μM SKF-81297 challenge", "setting": "[4]", "value": "40–60%"}, {"measurement": "Ki", "setting": "human D3R", "value": "> 671", "unit": "nM"}, {"measurement": "CL", "setting": "[5]; intravenous (1 mg/kg; PF-2334 0.1 mg/kg)", "value": "rapid clearance"}, {"measurement": "clearance", "setting": "[5]; male, Wistar Hannover, plasma, iv", "value": 245, "unit": "mL/min/kg"}, {"measurement": "Vd", "setting": "[5]; male, Wistar Hannover, plasma, iv, read-out: Vdss", "value": 3.9, "unit": "L/kg"}, {"measurement": "bioavailability", "setting": "[5]; male, Wistar Hannover, plasma, oral bioavailability", "value": 9.5, "unit": "%"}, {"measurement": "half-life", "setting": "[5]; male, Wistar Hannover, plasma, read-out: t½ (converted)", "value": 24, "unit": "min"}, {"measurement": "F", "setting": "[5]; oral bioavailability", "value": "low oral bioavailability"}]}
{"smiles": "Oc1cc2c(c(Cl)c1O)CCNCC2c1ccccc1", "note": "(stereo not shown) [SKF-81297, reference compound]", "values": [{"measurement": "β-arrestin-GFP recruitment to the plasma membrane (TIRFM)", "setting": "[2]", "value": "membrane associated β-arrestin puncta appeared rapidly"}, {"measurement": "Efficacy hD5R cAMP", "setting": "[3]", "value": "100±1"}]}
